Each structure is given as a SMILES string. Structures can show the parent of a compound that is named as a salt. Where two headings read alike, the source gives them in different places.

The target of assay [1] is T1, SARS-CoV-2 PLpro (nsp3 1564–1878) (Severe acute respiratory syndrome coronavirus 2, UniProt P0DTD1). Kind of assay: biochemical. The settings on record: low concentration screen, read-out: % of control remaining. On the set-up: FRET-quenched peptide (Pro3) cleavage by PLpro, 10 min pre-incubation, slope over 20 min, normalised to no-compound control.
Assay [2] concerns the target T1, SARS-CoV-2 PLpro (nsp3 1564–1878). Briefly: biochemical. Details: FRET-quenched peptide (Pro3) cleavage by PLpro, 10 min pre-incubation, slope over 20 min, normalised to no-compound control. The settings on record: high concentration screen, read-out: % of control remaining.

In the case of `O=C1OC(CN2CCOCC2)CN1/N=C/c1ccc([N+](=O)[O-])o1` (stereo not shown) [5-(4-morpholinylmethyl)-3-{[(E)-(5-nitro-2-furyl)methylidene]amino}-1,3-oxazolidin-2-one], in assay [1] (Well no.=6079), the remaining activity at 1.25 µM amounted to 99.9%. Besides, the remaining activity at 3.75 µM in assay [2] (Well no.=6079) was found to be 98.7%.

In the case of `O=C(O)COCCN1CCN(C(c2ccccc2)c2ccc(Cl)cc2)CC1` (stereo not shown) [Cetirizine 2HCl], the remaining activity at 1.25 µM in assay [1] (Well no.=1712) was 96.2%. In assay [2] (Well no.=1712), the remaining activity at 3.75 µM came to 98.8%.

`CN(C)[C@@H]1CCc2[nH]c3ccc(NC(=O)c4ccc(F)cc4)cc3c2C1` [LY 344864]: the remaining activity at 1.25 µM in assay [1] (Well no.=7289) stood at 93.4%. The remaining activity at 3.75 µM in assay [2] (Well no.=7289) worked out at 91.2%.

Regarding `Nc1ccc2ncnc(NCCc3ccc(Oc4ccccc4)cc3)c2c1` [NF-kB Activation Inhibitor], the remaining activity at 1.25 µM in assay [1] (Well no.=2566) is 97.6%. Moreover, the remaining activity at 3.75 µM in assay [2] (Well no.=2566) worked out at 98.5%.

Consider `CCCCCOC(=O)Nc1nc(=O)n([C@@H]2O[C@H](C)[C@@H](O)[C@H]2O)cc1F` [Capecitabine], for which the remaining activity at 1.25 µM in assay [1] (Well no.=2290) came out at 96.5%. For the same molecule, in assay [2] (Well no.=2290), the remaining activity at 3.75 µM came out at 96.5%.

In the case of `CC(C[N+](C)(C)C)OC(N)=O` (stereo not drawn) [Carbamyl-beta-methylcholine], the remaining activity at 1.25 µM in assay [1] (Well no.=1736) was 95.2%. In addition, the remaining activity at 3.75 µM in assay [2] (Well no.=1736) came to 94.9%.

Consider `COc1cc(O)c2c(c1)oc(=O)c1c3cc(O)c(O)cc3oc21` [Wedelolactone], for which, in assay [1] (Well no.=3230), the remaining activity at 1.25 µM amounted to 99.3%. Also, the remaining activity at 3.75 µM in assay [2] (Well no.=3230) amounted to 98%.

`C[C@]12CCC(=O)C=C1CC[C@@H]1[C@@H]2[C@@H](O)C[C@@]2(C)[C@H]1CC[C@]2(O)C(=O)COC(=O)CCC(=O)O` [Hydrocortisone 21-hemisuccinate sodium]: the remaining activity at 1.25 µM in assay [1] (Well no.=704) stood at 92.7%. Besides, in assay [2] (Well no.=704), the remaining activity at 3.75 µM was determined as 93.3%.

For `O=C1NC(=O)/C(=C/c2cccc(C(F)(F)F)c2)S1` [SMI-4a], the remaining activity at 1.25 µM in assay [1] (Well no.=4788) turned out to be 104%. In addition, the remaining activity at 3.75 µM in assay [2] (Well no.=4788) is 101%.

For `O=C1Cc2cc(CCN3CCN(c4nsc5ccccc45)CC3)c(Cl)cc2N1` [Ziprasidone (hydrochloride monohydrate)], in assay [1] (Well no.=6563), the remaining activity at 1.25 µM worked out at 92.6%. In addition, the remaining activity at 3.75 µM in assay [2] (Well no.=6563) is 90.8%.

Consider `CC1(C)O[C@@H]2C[C@H]3[C@@H]4C[C@H](F)C5=CC(=O)C=C[C@]5(C)[C@@]4(F)[C@@H](O)C[C@]3(C)[C@]2(C(=O)CO)O1` [Fluocinolone (Acetonide)], for which the remaining activity at 1.25 µM in assay [1] (Well no.=6667) was 108%. Moreover, the remaining activity at 3.75 µM in assay [2] (Well no.=6667) was 111%.

Take `CC(C)(C)C#Cc1cc(N(C(=O)[C@H]2CC[C@H](C)CC2)[C@H]2CC[C@H](O)CC2)c(C(=O)O)s1` [VX-222]: in assay [1] (Well no.=4903), the remaining activity at 1.25 µM was 97.1%. Further, the remaining activity at 3.75 µM in assay [2] (Well no.=4903) is 96.2%.

On to `CC1=C(O)C(=O)[C@@H]2O[C@@H]2C1=O` [(-)-Terreic acid - (1R,6S)-3-Hydroxy-4-methyl-7-oxabicyclo[4.1.0]hept-3-ene-2,5-dione], for which the remaining activity at 1.25 µM in assay [1] (Well no.=2398) was 99.2%. Moreover, the remaining activity at 3.75 µM in assay [2] (Well no.=2398) worked out at 104%.

In the case of `CCN(CC)Cc1ccc(C(=O)N(CCc2ccccc2OC)[C@@H]2CCNC2)cc1` [4-[(diethylamino)methyl]-N-[2-(2-methoxyphenyl)ethyl]-N-[(3R)-3-pyrrolidinyl]benzamide dihydrochloride], the remaining activity at 1.25 µM in assay [1] (Well no.=5467) worked out at 107%. For the same molecule, in assay [2] (Well no.=5467), the remaining activity at 3.75 µM came to 109%.

Take `NC(N)=S` [Thiourea]: in assay [1] (Well no.=4097), the remaining activity at 1.25 µM was 98.1%. Besides, the remaining activity at 3.75 µM in assay [2] (Well no.=4097) was 101%.

For the molecule `Nc1ccccc1C(=O)C[C@H](N)C(=O)O` [L-Kynurenine], the remaining activity at 1.25 µM in assay [1] (Well no.=7221) stood at 95.5%. Further, the remaining activity at 3.75 µM in assay [2] (Well no.=7221) worked out at 92%.

In the case of `CC(C)OC(=O)N1CCC(Oc2ncnc3c2cnn3-c2ccc(S(C)(=O)=O)cc2F)CC1` [APD668], the remaining activity at 1.25 µM in assay [1] (Well no.=6274) stood at 105%. Besides, in assay [2] (Well no.=6274), the remaining activity at 3.75 µM stood at 104%.

For `CCN(CC)CCNC(=O)c1c(C)[nH]c(/C=C2\C(=O)Nc3ccc(F)cc32)c1C` [Sunitinib], the remaining activity at 1.25 µM in assay [1] (Well no.=2703) amounted to 102%. Besides, the remaining activity at 3.75 µM in assay [2] (Well no.=2703) stood at 100%.

On to `N=C(N)NCCC[C@H](N)C(=O)O` [L-Arginine], for which the remaining activity at 1.25 µM in assay [1] (Well no.=351) is 97.9%; in assay [1] (Well no.=7205), 102%. Moreover, the remaining activity at 3.75 µM amounted to 98.7% in assay [2] (Well no.=351) and 99.2% in assay [2] (Well no.=7205).

Regarding `CN(C)CCCN1c2ccccc2Sc2ccc(C(F)(F)F)cc21` [Triflupromazine (hydrochloride)], the remaining activity at 1.25 µM in assay [1] (Well no.=6373) stood at 105%. The remaining activity at 3.75 µM in assay [2] (Well no.=6373) is 103%.

As to `COC(=O)[C@H](c1ccccc1Cl)N1CCc2sccc2C1` [Clopidogrel (hydrogen sulfate)], the results for the remaining activity at 1.25 µM in assay [1] (Well no.=7563) and in assay [1] (Well no.=7926) were 95.7% and 95.8%, respectively. The remaining activity at 3.75 µM in assay [2] (Well no.=7563) was determined as 96.5%; in assay [2] (Well no.=7926) it was 98.2%.

For `CCn1c(=O)c2c(C)c(C(=O)N3CCC(O)CC3)sc2n(CCC(F)(F)F)c1=O` [BAY-545], the remaining activity at 1.25 µM in assay [1] (Well no.=8597) turned out to be 106%. In addition, in assay [2] (Well no.=8597), the remaining activity at 3.75 µM was 104%.

For the molecule `CCCc1c(OCCCCc2nnn[nH]2)ccc(C(C)=O)c1O` [LY-171883], the remaining activity at 1.25 µM in assay [1] (Well no.=4522) stood at 98%. The remaining activity at 3.75 µM in assay [2] (Well no.=4522) was determined as 102%.

`N[C@@H](CSSC[C@H](N)C(=O)O)C(=O)O` [L-Cystine]: the remaining activity at 1.25 µM in assay [1] (Well no.=6393) turned out to be 104%. In addition, the remaining activity at 3.75 µM in assay [2] (Well no.=6393) worked out at 106%.

Turning to `N[C@@H](CCCC(=O)O)C(=O)O` [L-2-aminoadipic acid], the remaining activity at 1.25 µM in assay [1] (Well no.=52) stood at 97.1%. In assay [2] (Well no.=52), the remaining activity at 3.75 µM is 97.4%.

As for `C[C@H](CCC(=O)NCCS(=O)(=O)O)[C@H]1CC[C@H]2[C@@H]3[C@@H](O)C[C@@H]4C[C@H](O)CC[C@]4(C)[C@H]3CC[C@]12C` [Tauroursodeoxycholate dihydrate], the remaining activity at 1.25 µM in assay [1] (Well no.=7112) came to 95.4%. In addition, the remaining activity at 3.75 µM in assay [2] (Well no.=7112) amounted to 93.5%.

On to `C=CCN1CCc2nc(N)sc2CC1` [B-HT 920], for which the remaining activity at 1.25 µM in assay [1] (Well no.=8195) turned out to be 99.9%. The remaining activity at 3.75 µM in assay [2] (Well no.=8195) was 100%.

For `CO[C@H]1C[C@@H]2CC[C@@H](C)[C@@](O)(O2)C(=O)C(=O)N2CCCC[C@H]2C(=O)O[C@H]([C@H](C)C[C@@H]2CC[C@@H](OCCO)[C@H](OC)C2)CC(=O)[C@H](C)/C=C(\C)[C@@H](O)[C@@H](OC)C(=O)[C@H](C)C[C@H](C)/C=C/C=C/C=C/1C` [Everolimus], the remaining activity at 1.25 µM in assay [1] (Well no.=8740) turned out to be 90.8%. Moreover, the remaining activity at 3.75 µM in assay [2] (Well no.=8740) was 87.3%.

With `N=C(NCCC[C@H](N)C(=O)O)N[N+](=O)[O-]` [NG-Nitro-L-arginine], in assay [1] (Well no.=857), the remaining activity at 1.25 µM is 99.8%. In addition, the remaining activity at 3.75 µM in assay [2] (Well no.=857) was determined as 101%.

For `CC(=O)[C@H]1CC[C@H]2[C@@H]3CC[C@H]4C[C@H](O)CC[C@]4(C)[C@H]3CC[C@]12C` [Allopregnanolone], the remaining activity at 1.25 µM in assay [1] (Well no.=6197) amounted to 105%. The remaining activity at 3.75 µM in assay [2] (Well no.=6197) was found to be 107%.

For the origin of these results see PMC8286840, “Identifying SARS-CoV-2 antiviral compounds by screening for small molecule inhibitors of Nsp3 papain-like protease” (Biochemical Journal, 2021).
